# Experimental data taken from PubChem BioAssay (NCI).
# “And” between values parts separate entries of the source, which are not always exact repeats. Equal values may be shown once.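 48-hour exposure; five concentrations; linearly interpolated endpoints. Here, GI50 denotes the concentration required for 50% inhibition of growth. TGI is the concentration that stops growth completely.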
# Assays:
# Experiment in all cases: NCI tumour cell line growth inhibition, 48 h
# SF-268 CNS = tested on: SF-268 CNS
# MDA-MB-435 = tested on: MDA-MB-435
# SN12K1 renal = tested on: SN12K1 renal
# HL-60(TB) leukemia = tested on: HL-60(TB) leukemia
# HCT-15 colon = tested on: HCT-15 colon
# TK-10 renal = tested on: TK-10 renal
# SK-MEL-28 melanoma = tested on: SK-MEL-28 melanoma
# DMS 273 small cell lung = tested on: DMS 273 small cell lung
# P388/ADR leukemia = tested on: P388/ADR leukemia
# KM20L2 colon = tested on: KM20L2 colon
# BT-549 breast = tested on: BT-549 breast
# SK-MEL-5 melanoma = tested on: SK-MEL-5 melanoma
# IGROV1 ovarian = tested on: IGROV1 ovarian
# XF 498 CNS = tested on: XF 498 CNS
# LOX IMVI melanoma = tested on: LOX IMVI melanoma
# DMS 114 small cell lung = tested on: DMS 114 small cell lung
# RPMI-8226 leukemia = tested on: RPMI-8226 leukemia
# OVCAR-3 ovarian = tested on: OVCAR-3 ovarian
# DU-145 prostate = tested on: DU-145 prostate
# UACC-257 melanoma = tested on: UACC-257 melanoma
# SK-MEL-2 melanoma = tested on: SK-MEL-2 melanoma
# HOP-92 NSCLC = tested on: HOP-92 NSCLC
# MCF7 breast = tested on: MCF7 breast
# NCI-H522 lung = tested on: NCI-H522 lung
# HOP-18 NSCLC = tested on: HOP-18 NSCLC
# 786-0 renal = tested on: 786-0 renal
# SK-OV-3 ovarian = tested on: SK-OV-3 ovarian
# DLD-1 colon = tested on: DLD-1 colon
# MDA-N = tested on: MDA-N
# MOLT-4 leukemia = tested on: MOLT-4 leukemia
# OVCAR-4 ovarian = tested on: OVCAR-4 ovarian
# NCI/ADR-RES ovarian = tested on: NCI/ADR-RES ovarian
smiles,measurement,setting,value
O=C(O)CCCc1ccc(N(CCCl)CCCl)cc1,TGI,SF-268 CNS,23.7 µM and 220 µM and 169 µM
same,GI50,MDA-MB-435,173 µM
same,TGI,MDA-MB-435,270 µM and 242 µM
same,TGI,SN12K1 renal,238 µM
same,GI50,HL-60(TB) leukemia,0.979 µM
same,TGI,HL-60(TB) leukemia,21.2 µM and 121 µM
same,GI50,HCT-15 colon,29.6 µM and 117 µM
same,TGI,HCT-15 colon,> 76.3 µM and 307 µM and 239 µM
same,GI50,TK-10 renal,25.4 µM and 81.4 µM
same,TGI,TK-10 renal,70.8 µM and 471 µM and 221 µM
same,GI50,SK-MEL-28 melanoma,21.5 µM
same,TGI,SK-MEL-28 melanoma,42.1 µM and 267 µM
same,GI50,DMS 273 small cell lung,3.84 µM
same,TGI,DMS 273 small cell lung,28 µM and 161 µM
same,TGI,P388/ADR leukemia,154 µM
same,GI50,KM20L2 colon,27.8 µM
same,TGI,KM20L2 colon,60.9 µM and 379 µM
same,TGI,BT-549 breast,290 µM and 289 µM
same,GI50,SK-MEL-5 melanoma,20.3 µM and 110 µM
same,TGI,SK-MEL-5 melanoma,39.5 µM and 210 µM and 225 µM
same,GI50,IGROV1 ovarian,30.5 µM and 158 µM
same,TGI,IGROV1 ovarian,65.3 µM and 352 µM and 321 µM
same,GI50,XF 498 CNS,12.1 µM
same,TGI,XF 498 CNS,31.9 µM and 158 µM
same,TGI,LOX IMVI melanoma,31.9 µM and 183 µM and 265 µM
same,GI50,DMS 114 small cell lung,7.84 µM
same,TGI,DMS 114 small cell lung,32.4 µM and 179 µM
same,GI50,RPMI-8226 leukemia,13 µM
same,TGI,RPMI-8226 leukemia,81.1 µM and 447 µM and 335 µM
same,GI50,OVCAR-3 ovarian,18.1 µM and 133 µM
same,TGI,OVCAR-3 ovarian,56.7 µM and 322 µM and 209 µM
same,GI50,DU-145 prostate,41.7 µM
same,TGI,DU-145 prostate,590 µM and 191 µM
same,GI50,UACC-257 melanoma,26 µM and 148 µM
same,TGI,UACC-257 melanoma,60.7 µM and 298 µM and 306 µM
same,GI50,SK-MEL-2 melanoma,31.8 µM and 270 µM
same,TGI,SK-MEL-2 melanoma,52 µM and 314 µM and 344 µM
same,GI50,HOP-92 NSCLC,25.2 µM and 99.1 µM
same,TGI,HOP-92 NSCLC,46.6 µM and 199 µM and 175 µM
same,TGI,MCF7 breast,379 µM and 431 µM
same,TGI,NCI-H522 lung,13.1 µM and 100 µM and 99.4 µM
same,GI50,HOP-18 NSCLC,17.7 µM
same,TGI,HOP-18 NSCLC,> 70 µM and 267 µM
same,GI50,786-0 renal,7.67 µM and 35.7 µM
same,TGI,786-0 renal,28.4 µM and 181 µM and 133 µM
same,GI50,SK-OV-3 ovarian,20.4 µM and 196 µM
same,TGI,SK-OV-3 ovarian,52 µM and 402 µM and 498 µM
same,GI50,DLD-1 colon,24.3 µM
same,TGI,DLD-1 colon,54.8 µM and 280 µM
same,GI50,MDA-N,194 µM
same,TGI,MDA-N,271 µM and 325 µM
same,GI50,MOLT-4 leukemia,0.999 µM
same,TGI,MOLT-4 leukemia,12.7 µM and 104 µM
same,GI50,OVCAR-4 ovarian,24.7 µM and 185 µM
same,TGI,OVCAR-4 ovarian,43.5 µM and 327 µM and 284 µM
same,GI50,NCI/ADR-RES ovarian,39.4 µM
same,TGI,NCI/ADR-RES ovarian,329 µM and 118 µM
